Patent publication US7875647B2, “Heteroaryl-pyrazole derivatives as cannabinoid CB1 receptor antagonists” (Green Cross Corporation, priority 2006, dated 2011)

What follows are compounds tested against T1, Cannabinoid-1 receptor (CB1R) (Rattus norvegicus, UniProt P20272) (assay: Cannabinoid-1 receptor (CB1R) binding affinity assay ([3H]CP-55940, rat CB-1 receptor binding protocol)). Conditions: IC50(nM), brain tissue of SD rats, [3H]CP-55940, 30° C. 60 min.
T1 construct: The tissue obtained from the brain of SD rats was homogenized; from tissue; host or cells: brain of SD rats (membrane pellet of the homogenate)
T1 sequence (P20272 whole entry): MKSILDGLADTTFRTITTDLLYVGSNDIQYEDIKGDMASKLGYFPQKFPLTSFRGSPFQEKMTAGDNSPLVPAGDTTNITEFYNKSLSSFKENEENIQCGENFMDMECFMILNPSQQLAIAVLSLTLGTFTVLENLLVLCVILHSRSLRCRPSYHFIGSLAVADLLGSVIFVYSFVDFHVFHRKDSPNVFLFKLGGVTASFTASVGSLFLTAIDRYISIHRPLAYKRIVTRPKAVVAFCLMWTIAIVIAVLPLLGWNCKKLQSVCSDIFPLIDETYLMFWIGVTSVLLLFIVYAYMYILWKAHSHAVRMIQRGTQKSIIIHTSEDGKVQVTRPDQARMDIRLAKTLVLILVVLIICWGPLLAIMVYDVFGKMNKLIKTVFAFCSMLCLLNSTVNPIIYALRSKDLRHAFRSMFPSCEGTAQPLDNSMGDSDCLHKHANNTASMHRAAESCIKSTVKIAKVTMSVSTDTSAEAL

Structure (SMILES) | IC50 [nM]
C=Cc1c(-c2nnc(C(C)(C)C)o2)nn(-c2ccc(Cl)cc2Cl)c1-c1ccc(Br)cc1 [Example 228, 2-(5-(4-bromophenyl)-1-(2,4-dichlorophenyl)-4-vinyl-1H-pyrazol-3-yl)-5-tert-butyl-1,3,4-oxadiazole] | 16.6
CCCCOC(C)(C)c1nnc(-c2nn(-c3ccc(Cl)cc3Cl)c(-c3ccc(Cl)cc3)c2C)o1 [Example 243, 2-(2-butoxypropan-2-yl)-5-(5-(4-chlorophenyl)-1-(2,4-dichlorophenyl)-4-methyl-1H-pyrazol-3-yl)-1,3,4-oxadiazole] | 9.78
CCCCCOC(C)(C)c1nnc(-c2nn(-c3ccc(Cl)cc3Cl)c(-c3ccc(Cl)cc3)c2C)o1 [Example 244, 2-(5-(4-chlorophenyl)-1-(2,4-dichlorophenyl)-4-methyl-1H-pyrazol-3-yl)-5-(2-(pentyloxy)propan-2-yl)-1,3,4-oxadiazole] | 15.1
Cc1c(-c2nnc(C(C)(C)OCc3cccc(Cl)c3)o2)nn(-c2ccc(Cl)cc2Cl)c1-c1ccc(Cl)cc1 [Example 249, 2-(2-(3-Chlorobenzyloxy)propan-2-yl)-5-(5-(4-chlorophenyl)-1-(2,4-dichlorophenyl)-4-methyl-1H-pyrazol-3-yl)-1,3,4-oxadiazole] | 11.1
C=CCC1(c2nnc(-c3nn(-c4ccc(Cl)cc4Cl)c(-c4ccc(Br)cc4)c3CC)o2)CC1 [Example 259, 2-(1-allylcyclopropyl)-5-(5-(4-bromophenyl)-1-(2,4-dichlorophenyl)-4-ethyl-1H-pyrazol-3-yl)-1,3,4-oxadiazole] | 9.57

Same assay, conditions: brain tissue of SD rats, [3H]CP-55940, 30° C. 60 min; read-out: IC50

Structure (SMILES) | IC50 [nM]
COC(C)c1c(-c2nnc(C(C)(C)C)o2)nn(-c2ccc(Cl)cc2Cl)c1-c1ccc(Cl)cc1 (stereo not shown) [Example 226, 2-tert-butyl-5-(5-(4-chlorophenyl)-1-(2,4-dichlorophenyl)-4-(1-methoxyethyl)-1H-pyrazol-3-yl)-1,3,4-oxadiazole] | 62.7
C=Cc1c(-c2nnc(C(C)(C)C)o2)nn(-c2ccc(Cl)cc2Cl)c1-c1ccc(Cl)cc1 [Example 227, 2-tert-butyl-5-(5-(4-chlorophenyl)-1-(2,4-dichlorophenyl)-4-vinyl-1H-pyrazol-3-yl)-1,3,4-oxadiazole] | 16.9
C=Cc1c(-c2nnc(C3(c4ccc(Cl)cc4)CC3)o2)nn(-c2ccc(Cl)cc2Cl)c1-c1ccc(Cl)cc1 [Example 229, 2-(5-(4-chlorophenyl)-1-(2,4-dichlorophenyl)-4-vinyl-1H-pyrazol-3-yl)-5-(1-(4-chlorophenyl)cyclopropyl)-1,3,4-oxadiazole] | 14.1
COC(=O)NC(C)c1c(-c2nnc(C(C)(C)C)o2)nn(-c2ccc(Cl)cc2Cl)c1-c1ccc(Br)cc1 (stereo not shown) [Example 230, Methyl 1-(5-(4-bromophenyl)-3-(5-tert-butyl-1,3,4-oxadiazol-2-yl)-1-(2,4-dichlorophenyl)-1H-pyrazol-4-yl)ethylcarbamate] | 9.01
COC(=O)NC(C)c1c(-c2nnc(C3(c4ccc(Cl)cc4)CC3)o2)nn(-c2ccc(Cl)cc2Cl)c1-c1ccc(Cl)cc1 (stereo not shown) [Example 231, Methyl 1-(5-(4-chlorophenyl)-3-(5-(1-(4-chlorophenyl)cyclopropyl)-1,3,4-oxadiazol-2-yl)-1-(2,4-dichlorophenyl)-1H-pyrazol-4-yl)ethylcarbamate] | 4.06
COC(=O)NCc1c(-c2nnc(C(C)(C)C)o2)nn(-c2ccc(Cl)cc2Cl)c1-c1ccc(Cl)cc1 [Example 232, Methyl (3-(5-tert-butyl-1,3,4-oxadiazol-2-yl)-5-(4-chlorophenyl)-1-(2,4-dichlorophenyl)-1H-pyrazol-4-yl)methylcarbamate] | 15.6
CC(C)(C)c1nnc(-c2nn(-c3ccc(Cl)cc3Cl)c(-c3ccc(Cl)cc3)c2COc2ccccc2)o1 [Example 233, 2-tert-butyl-5-(5-(4-chlorophenyl)-1-(2,4-dichlorophenyl)-4-(phenoxymethyl)-1H-pyrazol-3-yl)-1,3,4-oxadiazole] | 28.9
CC(C)(C)c1nnc(-c2nn(-c3ccc(Cl)cc3Cl)c(-c3ccc(Cl)cc3)c2COc2ccccn2)o1 [Example 234, 2-tert-butyl-5-(5-(4-chlorophenyl)-1-(2,4-dichlorophenyl)-4-((pyridin-2-yloxy)methyl)-1H-pyrazol-3-yl)-1,3,4-oxadiazole] | 24.4
CCCOC(C)(C)c1nnc(-c2nn(-c3ccc(Cl)cc3Cl)c(-c3ccc(Cl)cc3)c2C)o1 [Example 235, 2-(5-(4-chlorophenyl)-1-(2,4-dichlorophenyl)-4-methyl-1H-pyrazol-3-yl)-5-(2-propoxypropan-2-yl)-1,3,4-oxadiazole] | 42
CCCCC(OCc1ccccc1)c1nnc(-c2nn(-c3ccc(Cl)cc3Cl)c(-c3ccc(Cl)cc3)c2C)o1 (stereo not shown) [Example 236, 2-(1-(benzyloxy)pentyl)-5-(5-(4-chlorophenyl)-1-(2,4-dichlorophenyl)-4-methyl-1H-pyrazol-3-yl)-1,3,4-oxadiazole] | 177
C=CCOC(C)(C)c1nnc(-c2nn(-c3ccc(Cl)cc3Cl)c(-c3ccc(Cl)cc3)c2C)o1 [Example 237, 2-(2-(allyloxy)propan-2-yl)-5-(5-(4-chlorophenyl)-1-(2,4-dichlorophenyl)-4-methyl-1H-pyrazol-3-yl)-1,3,4-oxadiazole] | 17.3
C=CCOC(C)(C)c1nnc(-c2nn(-c3ccc(Cl)cc3Cl)c(-c3ccc(Br)cc3)c2CC)o1 [Example 238, 2-(2-(allyloxy)propan-2-yl)-5-(5-(4-bromophenyl)-1-(2,4-dichlorophenyl)-4-ethyl-1H-pyrazol-3-yl)-1,3,4-oxadiazole] | 18.4
C=CCOC(C)(C)c1nnc(-c2nn(-c3ccc(Cl)cc3Cl)c(-c3ccc(Cl)cc3)c2CC)o1 [Example 239, 2-(2-(allyloxy)propan-2-yl)-5-(5-(4-chlorophenyl)-1-(2,4-dichlorophenyl)-4-ethyl-1H-pyrazol-3-yl)-1,3,4-oxadiazole] | 4.48
CCc1c(-c2nnc(C(C)(C)OCCCO)o2)nn(-c2ccc(Cl)cc2Cl)c1-c1ccc(Br)cc1 [Example 240, 3-(2-(5-(5-(4-bromophenyl)-1-(2,4-dichlorophenyl)-4-ethyl-1H-pyrazol-3-yl)-1,3,4-oxadiazol-2-yl)propan-2-yloxy)propan-1-ol] | 13.7
CCCCC(O)c1nnc(-c2nn(-c3ccc(Cl)cc3Cl)c(-c3ccc(Cl)cc3)c2C)o1 (stereo not shown) [Example 241, 1-(5-(5-(4-chlorophenyl)-1-(2,4-dichlorophenyl)-4-methyl-1H-pyrazol-3-yl)-1,3,4-oxadiazol-2-yl)pentan-1-ol] | 73.4
Cc1c(-c2nnc([C@H]3C[C@H]3C(=O)N3CCCCC3)o2)nn(-c2ccc(Cl)cc2Cl)c1-c1ccc(Cl)cc1 [Example 242, ((1R,2S)-2-(5-(5-(4-chlorophenyl)-1-(2,4-dichlorophenyl)-4-methyl-1H-pyrazol-3-yl)-1,3,4-oxadiazol-2-yl)cyclopropyl)(piperidin-1-yl)methanone] | 67.3
Cc1c(-c2nnc(C(C)(C)OCc3ccccc3)o2)nn(-c2ccc(Cl)cc2Cl)c1-c1ccc(Cl)cc1 [Example 245, 2-(2-(benzyloxy)propan-2-yl)-5-(5-(4-chlorophenyl)-1-(2,4-dichlorophenyl)-4-methyl-1H-pyrazol-3-yl)-1,3,4-oxadiazole] | 9.41
Cc1c(-c2nnc(C(C)(C)OCc3ccccc3F)o2)nn(-c2ccc(Cl)cc2Cl)c1-c1ccc(Cl)cc1 [Example 248, 2-(5-(4-Chlorophenyl)-1-(2,4-dichlorophenyl)-4-methyl-1H-pyrazol-3-yl)-5-(2-(2-fluorobenzyloxy)propan-2-yl)-1,3,4-oxadiazole] | 25.1
COC(c1ccccc1)(c1nnc(-c2nn(-c3ccc(Cl)cc3Cl)c(-c3ccc(Cl)cc3)c2C)o1)C(F)(F)F (stereo not shown) [Example 251, 2-(5-(4-chlorophenyl)-1-(2,4-dichlorophenyl)-4-methyl-1H-pyrazol-3-yl)-5-(2,2,2-trifluoro-1-methoxy-1-phenylethyl)-1,3,4-oxadiazole] | 12.8
CC(=O)OCC(C)(C)c1nnc(-c2nn(-c3ccc(Cl)cc3Cl)c(-c3ccc(Cl)cc3)c2C)o1 [Example 252, 2-(5-(5-(4-chlorophenyl)-1-(2,4-dichlorophenyl)-4-methyl-1H-pyrazol-3-yl)-1,3,4-oxadiazol-2-yl)-2-methylpropyl acetate] | 54.5
Cc1c(-c2nnc(C(C)(C)CO)o2)nn(-c2ccc(Cl)cc2Cl)c1-c1ccc(Cl)cc1 [Example 253, 2-(5-(5-(4-chlorophenyl)-1-(2,4-dichlorophenyl)-4-methyl-1H-pyrazol-3-yl)-1,3,4-oxadiazol-2-yl)-2-methylpropan-1-ol] | 97.9
Cc1c(-c2nnc(C(C)(C)COCc3ccccc3)o2)nn(-c2ccc(Cl)cc2Cl)c1-c1ccc(Cl)cc1 [Example 254, 2-(1-(Benzyloxy)-2-methylpropan-2-yl)-5-(5-(4-chlorophenyl)-1-(2,4-dichlorophenyl)-4-methyl-1H-pyrazol-3-yl)-1,3,4-oxadiazole] | 492
Cc1c(-c2nnc(C3(c4cccc(Cl)c4)CC3)o2)nn(-c2ccc(Cl)cc2Cl)c1-c1ccc(Cl)cc1 [Example 257, 2-(5-(4-chlorophenyl)-1-(2,4-dichlorophenyl)-4-methyl-1H-pyrazol-3-yl)-5-(1-(3-chlorophenyl)cyclopropyl)-1,3,4-oxadiazole] | 11.3
CCc1c(-c2nnc(C3(c4cccc(Cl)c4)CC3)o2)nn(-c2ccc(Cl)cc2Cl)c1-c1ccc(Cl)cc1 [Example 258, 2-(5-(4-chlorophenyl)-1-(2,4-dichlorophenyl)-4-ethyl-1H-pyrazol-3-yl)-5-(1-(3-chlorophenyl)cyclopropyl)-1,3,4-oxadiazole] | 8.72
C#Cc1c(-c2nnc(C(C)(C)C)o2)nn(-c2ccc(Cl)cc2Cl)c1-c1ccc(Cl)cc1 [Example 260, 2-tert-butyl-5-(5-(4-chlorophenyl)-1-(2,4-dichlorophenyl)-4-ethynyl-1H-pyrazol-3-yl)-1,3,4-oxadiazole] | 10.6
CC#Cc1c(-c2nnc(C(C)(C)C)o2)nn(-c2ccc(Cl)cc2Cl)c1-c1ccc(Cl)cc1 [Example 261, 2-tert-butyl-5-(5-(4-chlorophenyl)-1-(2,4-dichlorophenyl)-4-(prop-1-ynyl)-1H-pyrazol-3-yl)-1,3,4-oxadiazole] | 15.4
